# In PMC10215404, “Effect of Indole-Containing Pyrazino[2,1-b]quinazoline-3,6-diones in the Virulence of Resistant Bacteria” (Antibiotics, 2023):
# How the values were obtained:
# [1] = test system: NIH/3T3 mouse fibroblast cell line; assay: Cytotoxicity assay (MTT); format: cell-based; details: NIH3T3, 24 h
# Experimental: The effects of increasing concentrations of compounds on cell growth were tested in 96-well flat-bottomed microtiter plates. The compounds were diluted in a volume of 100 μL of medium. Afterwards, 1 × 10^4 cells in 100 μL of medium were added to each well, with the exception of the medium control. In the case of NIH/3T3 cells, the compounds were added after seeding the cells at 37 °C overnight. The plates were incubated at 37 °C for 24 h; after the incubation period, 20 μL of MTT solution (from a 5 mg/mL stock) was added to each well. After 4 h of incubation at 37 °C, 100 μL of SDS solution (10% in 0.01 M HCl) was added to each well and the plates were incubated at 37 °C overnight. Cell growth was determined by measuring the optical density (OD) at 540 nm (ref. 630 nm) with a Multiscan EX ELISA reader. Inhibition of cell growth was determined as IC50 values, defined as the inhibitory dose that reduced the growth of the cells exposed to the tested compounds by 50%. IC50 values and the SD of triplicate experiments were calculated by using GraphPad Prism software version 5.00 for Windows with a nonlinear regression curve fit (GraphPad Software, San Diego, CA, USA; www.graphpad.com, accessed on 14 July 2022). Doxorubicin (from a 2 mg/mL stock solution, Teva Pharmaceuticals) was used as the positive control.
# [2] = test system: H1N1; parameters: method as in PMID 23758051; details: anti-viral; cited from earlier work
# [3] = test system: E. coli AG100; assay: Real-time ethidium bromide accumulation assay (efflux pump inhibition); details: minute 60
# [4] = test system: Vibrio harveyi; details: aqua-pathogenic Vibrio harveyi; literature, reference not given; cited from earlier work
# [5] = test system: S. aureus 272123; assay: Real-time ethidium bromide accumulation assay (efflux pump inhibition); details: minute 60
# [6] = test system: E. coli AG100A; assay: as above; details: compound at 100 μM, minute 60
# [7] = test system: E. coli (ATCC 25922, SA/2, AG100, AG100A); assay: MIC determination, broth microdilution; format: cell-based; details: Escherichia coli, ATCC25922
# Description: (§1) Both reference and resistant strains used in this work were employed by our group for the screening of different families of compounds, such as xanthones and thioxanthones.
# [8] = test system: S. aureus MRSA 272123; assay: MIC determination, broth microdilution; format: cell-based; details: Staphylococcus aureus
# Description: as §1
# [9] = test system: E. faecalis ATCC 29212; assay: MIC determination, broth microdilution; format: cell-based; details: Enterococcus faecalis, ATCC29212
# Description: as §1
# [10] = test system: S. aureus ATCC 29213; assay: MIC determination, broth microdilution; format: cell-based; details: Staphylococcus aureus, ATCC29213
# Description: as §1
# [11] = test system: S. aureus 66/1 (MRSA); assay: MIC determination, broth microdilution; format: cell-based; details: Staphylococcus aureus
# Description: as §1
# [12] = test system: P. aeruginosa ATCC 27853; assay: MIC determination, broth microdilution; format: cell-based; details: Pseudomonas aeruginosa, ATCC27853
# Description: as §1
# [13] = test system: E. faecalis B3/101 (VRE); assay: MIC determination, broth microdilution; format: cell-based; details: Enterococcus faecalis
# Description: as §1
# [14] = test system: E. coli AG100; assay: Biofilm formation, crystal violet method; format: cell-based, Escherichia coli; details: 50 μM
# Experimental: (§2) The antibiofilm effect of the tested compounds was evaluated using the crystal violet method on E. coli AG100, E. coli AG100A, and MRSA 272123. […] CCCP was used as a positive control.
# (§3) The biofilm-forming ability of the S. aureus strains was studied in 96-well microtiter plates using TSB broth in the presence of compounds. The biofilm-forming ability of the E. coli strains was studied in 96-well microtiter plates using LB broth in the presence of the compounds. […] The final volume was 200 μL in each well. The positive control was CCCP at 50 µM. Plates were incubated for 48 h at 30 °C with gentle shaking at 100 rpm. After the incubation period, the medium was removed and the plate was washed with water to remove unattached cells. A total of 200 μL CV (0.1% [v/v]) was added to each wells and incubated for 15 min at room temperature. CV was discarded from the wells and the plate was washed with water again. Then, 200 μL of 70% ethanol was added to each well and the biofilm formation was determined by measuring the OD at 600 nm using a Multiscan EX ELISA plate reader (Thermo Labsystems, Cheshire, WA, USA). The antibiofilm effect of the compounds was expressed as the percentage (%) decrease in biofilm formation.
# [15] = test system: E. coli AG100A; assay: Biofilm formation, crystal violet method; format: cell-based, Escherichia coli
# Experimental: as §2, §3
# [16] = test system: phytopathogenic fungi; parameters: method as in PMID 22409377; details: several phytopathogenic fungi; cited from earlier work
# [17] = test system: Staphylococcus aureus; details: sensitive and methicillin-resistant strains of S. aureus; cited from earlier work
# [18] = test system: Enterococcus faecalis; details: sensitive and vancomycin-resistant strains of E. faecalis; cited from earlier work
# [19] = test system: human brain endothelial cell line (hCMEC/D3); parameters: method as in PMID 27268269; details: cited from earlier work
SMILES,IC50 [1],RFI ± SD ([3]; compound at 50 μM),RFI ± SD ([3]; compound at 100 μM),RFI ± SD ([5]; compound at 50 μM),RFI ± SD ([5]; compound at 100 μM),RFI ± SD [6],MIC [7],MIC [8],MIC [9],MIC [10],MIC [11],MIC [12],MIC [13],also measured
"O=C1NCc2nc3ccccc3c(=O)n2[C@@H]1Cc1c[nH]c2ccccc12 [Compound 1, (R)-4-((1H-indol-3-yl)methyl)-1,2-dihydro-6H-pyrazino[2,1-b]quinazoline-3,6(4H)-dione]",> 100 µM,−0.24 ± 0.05,−0.04 ± 0.10,0.23 ± 0.02,−0.01 ± 0.04,0.12 ± 0.01,> 100 µM,> 100 µM,> 100 µM,> 100 µM,> 100 µM,> 100 µM,> 100 µM,IC50 [2]: 100 to 150 µM; MIC [4]: 32 µg/mL
"C[C@@H]1NC(=O)[C@@H](Cc2c[nH]c3ccccc23)n2c1nc1ccccc1c2=O [Compound 2, (1S,4R)-4-((1H-indol-3-yl)methyl)-1-methyl-1,2-dihydro-6H-pyrazino[2,1-b]quinazoline-3,6(4H)-dione]",> 100 µM,−0.31 ± 0.02,0.17 ± 0.10,−0.01 ± 0.02,0.05 ±0.02,0.26 ± 0.10,> 100 µM,> 100 µM,> 100 µM,> 100 µM,> 100 µM,> 100 µM,> 100 µM,antibiofilm effect (in words) [14]: reduced the amount of biofilm; decrease in biofilm formation [15]: 65%; MIC [16]: 12.5 to 25 µg/mL
"CC(C)[C@@H]1NC(=O)[C@@H](C[C@]2(O)c3ccccc3N3C(=O)[C@@H](C)N[C@H]32)n2c1nc1ccccc1c2=O [Compound 3, Neofiscalin A]",–,–,–,–,–,–,–,–,–,–,–,–,–,MIC [17]: 8 µg/mL; MIC [18]: 8 µg/mL; cytotoxicity (in words) [19]: no cytotoxicity
